The numbers were not newly measured in patent US20220211725A1, “Pharmaceutical Composition Comprising Venetoclax” (Alembic Pharmaceuticals Limited, priority 2019, published 2022), which cites them from elsewhere.

For this data set the following is noted: background description.

Regarding `CC1(C)CCC(CN2CCN(c3ccc(C(=O)NS(=O)(=O)c4ccc(NCC5CCOCC5)c([N+](=O)[O-])c4)c(Oc4cnc5[nH]ccc5c4)c3)CC2)=C(c2ccc(Cl)cc2)C1` [Venetoclax], the aqueous solubility result is “very low”.
